Like-named read-outs stand apart in the source and are kept apart here.

Assay [1] deals with primary human hepatocytes (PH, PHHs). Kind of assay: Cell viability assay (MTT) of primary human hepatocytes after 24 hours drug treatment. It is filed as cell-based. Conditions: Hepatocyte, read-out: IC50 PH. The method, then:
Cryopreserved PHHs were obtained from Life Technologies (Carlsbad, Calif., USA) and BD Biosciences (Franklin Lakes, N.J., USA). The cells were thawed in a 37° C. water bath and resuspended in pre-warmed InVitroGRO HT Thawing Medium (Celsis, In Vitro Technologies, Baltimore, Md., USA). The cells were centrifuged at 800 rpm at 4° C. and the cell pellet was resuspended in InVitroGRO CP Plating Medium (containing 0.02% Torpedo Antibiotic Mix). Cells were counted and 50,000 cells were plated into each well of 96-well plates (Nunc, Naperville, Ill., USA) pre-coated with neutralized 1.5 mg/ml PureCol® Bovine Collagen solution, Type 1 (Advanced Biomatrix, San Diego, Calif., USA). After allowing for cell attachment for 4 hours, the media was changed to William's media E (Sigma-Aldrich, Singapore), supplemented with 1 mg/ml bovine serum albumin (Sigma), 1× insulin-transferrin-selenium and 1×MEM non-essential amino acids (Gibco, Carlsbad, Calif., USA), 100 nM dexamethasone (Sigma), 0.3 mg/ml L-glutamine (Lonza, Basel, Switzerland), 100 U/ml penicillin and 100 μg/ml streptomycin (Cellgro, Manassas, Va.). Culture medium was changed daily. Three different lots of hepatocytes were used for the experiments. All assays were performed after 2 days of culture.
(§1) Cell viability of differentiated hepatocytes was measured 24 hours after treatment with drugs using CellTiter 96® Non-Radioactive Cell Proliferation Assay (MTT) (Promega, Madison, Wis., USA) according to manufacturer's instructions. The following drugs were used for the cell viability assays: Acetaminophen, Diclofenac, Digoxin, Chlorpromazine, Troglitazone and Quinidine (all drugs from Sigma). Stock solutions of drugs were prepared in DMSO and then diluted in media to obtain desired working concentrations. Controls were treated with DMSO alone (in absence of test compounds) and considered as 100% viability value.
(§2) One of the major applications of hepatocytes is toxicity screening in order to aid drug development and discovery. Researchers have tried to predict drug-induced cytotoxicity in vitro using HepG2, HepaRG primary human hepatocyte (PH) as well as hESC/hiPSC-derived hepatocyte like cells. Although primary human hepatocyte (PH) are considered the gold standard for drug metabolism and toxicity in vitro, cells lines such as HepG2 and HepaRG are less expensive than primary human hepatocyte (PH) and reproducible experiments are easier to perform than they are with primary human hepatocyte (PHs). However, 30% of the compounds were incorrectly classified as nontoxic. To overcome these problems, it would be highly advantageous if hESC/hiPSC derived hepatocytes could be used to predict drug-induced toxicity. To examine its applicability to drug screening, small molecule-derived hepatocytes (SM-Hep) were treated with various drugs that cause hepatotoxicity. Cell viability, assessed using MTT assay, was compared to growth factor-derived hepatoctyes (GF-Hep) as well as primary human hepatocyte (PH). The susceptibility of small molecule-derived hepatocytes (SM-Hep) to all the drugs tested was similar to that of the growth factor-derived hepatoctyes (GF-Hep) (FIG. 6).

Assay [2] concerns SM-Hep (hepatocytes derived from hESCs using small molecules). Kind of assay: Cell viability assay (MTT) of small molecule-derived hepatocytes after 24 hours drug treatment. The class given is cell-based. Conditions: Homo sapiens, Hepatocyte, read-out: IC50 SM-Hep. How it is done: (§3) The differentiation was initiated when hESCs reached a confluence level of approximately 80%. […] Briefly, basal differentiation medium was composed of 60% DMEM-low glucose (Gibco, Carlsbad, Calif., USA), 40% MCDB-201-water (Sigma), 0.25× Linoleic acid—Bovine serum albumin (LA-BSA) (Sigma), 0.25× Insulin-transferrin-selenium (ITS) (Sigma), 100 U/mL Penicillin and 100 μg/mL Streptomycin (Cellgro), 0.1 mM L-Ascorbic Acid (Sigma), 1 μM Dexamethasone (Sigma) and 110 μM 2-mercaptoethanol (Gibco).
as §1, §2

Assay [3] deals with GF-Hep (hepatocytes derived from hESCs using growth factors). Kind of assay: Cell viability assay (MTT) of growth factor-derived hepatocytes after 24 hours drug treatment. The class given is cell-based. Conditions: Homo sapiens, Hepatocyte, read-out: IC50 GF-Hep. How it is done: as §3, §1, §2
Assay [4] has as its system hESCs (H9). Kind of assay: qPCR of pluripotency and definitive endoderm markers in hESCs treated for 6 days. Conditions: among small molecule combinations. The class given is cell-based, human. How it is done: hESC cell line, H9 (WiCell Research Institute, Madison, Wis.) was cultured and propagated on tissue culture plates coated with matrigel (BD Biosciences, San Jose, Calif., USA) in mTeSRTM 1 media (Stem Cell Technologies, Vancouver, BC, Canada). Cultures were passaged at intervals of 5-7 days by incubation with 1 mg/ml dispase (Stem Cell Technologies) for 5 minutes at 37° C. Colonies were picked under microscopic guidance and replated at 1:3 to 1:6 split ratios. […] (20 ng/ml). […] In human embryonic stem cells (hESCs), manipulations of Nodal and Wnt signaling have been exploited to direct differentiation towards definitive endoderm (DE). […] Therefore, to induce differentiation of HESCs into definitive endoderm using small molecules, the present study analyzed effects of compounds which could substitute for Activin A or/and Wnt signaling. […] Cells were cultured in the presence of diverse combinations of these three compounds for 6 days, and expression of pluripotency marker (OCT4) and definitive endoderm markers (SOX17 and FoxA2) were analyzed using qPCR. […] The expression of pluripotency markers (OCT4, Nanog and SOX2) and definitive endoderm (DE) markers (SOX17 and FOXA2) were analyzed using qPCR. […]
A general note: Real-time PCR tracks product formation cycle by cycle.

[5] abbreviates: Table 1 (initial results), cell viability, 24 hours treatment.
[6] abbreviates: Table 2 (updated results), cell viability, 24 hours treatment, PHHs.

Usually IC50 stands for the concentration that gives 50% inhibition. For the molecule `C[C@H]1O[C@@H](O[C@H]2[C@@H](O)C[C@H](O[C@H]3[C@@H](O)C[C@H](O[C@H]4CC[C@@]5(C)[C@H](CC[C@@H]6[C@@H]5C[C@@H](O)[C@]5(C)[C@@H](C7=CC(=O)OC7)CC[C@]65O)C4)O[C@@H]3C)O[C@@H]2C)C[C@H](O)[C@@H]1O` [Digoxin], the IC50 in assay [1] was determined as 0.34 µM; in assay [2] (24 h), 0.36 µM; in assay [3] (24 h) it was 0.25 µM.
As for `CN(C)CCCN1c2ccccc2Sc2ccc(Cl)cc21` [Chlorpromazine], the IC50 in assay [1] (setting [5]) is 71.8 µM; in assay [1] (setting [6]), 71.8 µM; in assay [2] (setting [5]) it was 66.9 µM; in assay [3] (setting [5]) it was 61.3 µM.
As for `O=C(O)CCCCCC(=O)NN=C1CCCC1` [IDE-2], in assay [4], the FOXA2 expression entry is on record as “highest FOXA2 expression” and the SOX17 expression entry was “no SOX17 expression was detected”.
`Cc1c(C)c2c(c(C)c1O)CCC(C)(COc1ccc(CC3SC(=O)NC3=O)cc1)O2` (stereo not shown) [Troglitazone]: the IC50 in assay [1] (setting [5]) is 85 µM; in assay [1] (setting [6]) it was 29.7 µM; in assay [2] (setting [5]), 31.9 µM; in assay [3] (setting [5]), 33.7 µM.
As for `C=C[C@H]1C[N@@]2CC[C@H]1C[C@@H]2[C@@H](O)c1ccnc2ccc(OC)cc12` [Quinidine], the IC50 in assay [1] (setting [5]) turned out to be 198 µM; in assay [1] (setting [6]) it was 563 µM; in assay [2] (setting [5]), 728 µM; in assay [3] (setting [5]), 538 µM.
Consider `O=C(O)Cc1ccccc1Nc1c(Cl)cccc1Cl` [Diclofenac], for which the IC50 worked out at 3590 µM in assay [1] (setting [5]), 3590 µM in assay [1] (setting [6]), 1930 µM in assay [2] (setting [5]) and 1860 µM in assay [3] (setting [5]).
`CC(=O)Nc1ccc(O)cc1` [Acetaminophen]: the IC50 in assay [1] (setting [5]) was 45200 µM; in assay [1] (setting [6]), 45200 µM; in assay [2] (setting [5]), 38100 µM; in assay [3] (setting [5]), 46000 µM.

For the origin of these results see patent US10323228B2, “Differentiation of hepatocyte-like cells from stem cells” (Agency for Science, Technology and Research, priority 2014, dated 2019).
